In US20080058405A1, “REPLICATING MELATONIN SIGNALING IN A FETUS, NEWBORN OR SUCKLING INFANT” (OREGON HEALTH & SCIENCE UNIVERSITY, priority 2006, published 2008):
“Also recorded” adds a separate entry of the source.

Experiments:
[1] = test system: newborn infant; assay: Manipulation of the sleep/wake circadian rhythm of a newborn infant by exogenous melatonin given orally to the nursing mother (suckled or pumped breast milk); type: in vivo, human
Method: The following log includes nighttime sleep data of the infant taking nothing else by mouth except thrush medication during about weeks 2-4. […] All melatonin used in this Example was an immediate-release formulation taken by the […] orally.
• Sunday (10 days post-partum, first day of exogenous melatonin administration in breast milk): • At 20:50 […] took 3 mg melatonin orally. At 21:20 breast-fed baby. […] Monday: • At 19:45, […] took 1.05 mg. […] Tuesday: • At 20:30, […] took 0.9 mg and fed at 9. […] Wednesday: • At 20:45, […] took 3 mg. […] Thursday. • […] took 3 mg at 20:45. […] Week 2 Sunday. • […] took 3 mg at 20:30 but ate immediately after. […] Tuesday: • […] took 3 mg at 20:30. […] Wednesday • […] took 3 mg at 20:30. […] Friday • […] took 3 mg at 20:30. […] Saturday: • […] took 3 mg at 20:30. […] Week 3 Sunday: • […] took 3 mg at 15:00. […] Monday • […] took 3 mg at 17:20. […] Tuesday: • […] took 3 mg at 17:00. […] Wednesday: • […] took 1.8 mg at 17:45. […] Thursday: • […] took 3 mg at 17:00. […] Friday: • […] took 3 mg at 20:30. […] Saturday: • […] took 2 mg at 19:15.

[2] = adults, orally-administered melatonin; cited from earlier work
[3] = same maternal dosing, infant fed by breast milk

With `COc1ccc2[nH]cc(CCNC(C)=O)c2c1` [melatonin, N-acetyl-5-methoxytryptamine] the “infant sleep period after first feeding with exogenous melatonin in breast milk” value ([1]; 10 days post-partum, mother took 3 mg orally at 20:50, baby breast-fed at 21:20) was “slept between 22:00 and 04:00”, the “improvement of colic versus its worst” value ([1]; Week 5 Monday, parent took 3 mg at 17:00) was “about 40%” and the “sleep of mother and newborn” value ([1]; parent took 1.8-12 mg (usually 3 mg) in the evening, sometimes 1-2 mg in the middle of the night or 0.5 mg towards end of night, immediate-release, oral, infant fed by suckling or pumped breast milk) was “better sleep for both mother and newborn”. For the same compound, the “actual breast-feeding time during the night” value [1, 3] was “no reduction”, the “development of the infant's independent ability to synchronize to the ambient light/dark cycle” value [1, 3] was “appeared to accelerate development; also recorded: caused early synchronization” and the “evening/nighttime colic in the infant” value [1, 3] was “less evening/nighttime colic”. The “weight gain in the baby” value [1, 3] was “steady weight gain; also recorded: excellent on melatonin, better than before melatonin” and the melatonin bioavailability [2] was 1-15%.
